Assay results published in patent publication US12006302B2, “Tau PET imaging ligands” (Janssen Pharmaceutica NV, priority 2016, dated 2024).
Blank lines part the entries; values can stand above or below the compound they belong to.

Legend:
[1] = tested on: AD brain containing tau and Aβ pathology; experiment: in vitro binding of tritiated tracers to frozen AD brain slices with tau and Aβ pathology; parameters: species or system human; settings: tracer 10 nM
Procedure: (§1) The tracer was tested at 10 nM and higher concentrations were not investigated in this study.
(§2) [^3H]-AV-45 (selective for Aβ plaques) binds both tau and Aβ pathology (Aβ+/tau+, Tissue #28391) and Aβ pathology only (Aβ+/tau−, Tissue #92/050) human tissues as expected (FIG. 3L-M). As a control for the human AD tissues (Tissue #28391: FIG. 4, Tissue #92/050: FIG. 5) and striatal tissue (FIG. 6) used in this study immunohistochemistry was performed. […] Furthermore, MAO-B and MAO-A expression in the human striatal tissue (#S96/037) was confirmed using immunohistochemistry (FIG. 6).

[2] = tested on: AD tissue containing only Aβ plaques; experiment: in vitro binding of tritiated tracers to tau-negative AD tissue; parameters: species or system human; settings: tracer 10 nM
Procedure: as §1, §2

MAO = experiment: in vitro binding of tritiated tracers to MAO-rich human tissue (striatum); settings: tracer 10 nM
Procedure: as §1
In comparison, the tau tracer [^3H]-THK-5351 and the Aβ tracer [^3H]-AV-45 were used as THK-5351 is known to also bind MAO.

[3] = target: peripheral cortical benzodiazepine receptors in activated microglia (Homo sapiens, UniProt P30536); settings: literature; cited from earlier work
Sequence of peripheral cortical benzodiazepine receptors in activated microglia (P30536 whole entry): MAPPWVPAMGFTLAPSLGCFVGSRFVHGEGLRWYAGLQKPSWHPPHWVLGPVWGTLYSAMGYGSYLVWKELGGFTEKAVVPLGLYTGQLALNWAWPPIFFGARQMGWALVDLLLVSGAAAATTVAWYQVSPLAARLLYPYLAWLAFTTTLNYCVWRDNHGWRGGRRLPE

[4] = tested on: human AD brain cortex homogenates containing abundant NFT; settings: literature; cited from earlier work
[5] = target: T1, amyloid plaque-rich, NFT-poor AD brain homogenates (Homo sapiens, UniProt P05067); settings: literature; cited from earlier work
T1 construct: amyloid plaques which form by aggregation of beta-amyloid peptide; host or cells: AD brain homogenates
T1 sequence (P05067 672-713 limits assumed): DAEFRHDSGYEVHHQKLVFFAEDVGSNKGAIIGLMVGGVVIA

[6] = literature; cited from earlier work
PHF = PHF (Homo sapiens, UniProt P10636); settings: literature; cited from earlier work
Sequence of PHF (P10636 1-441 isoform P10636-8): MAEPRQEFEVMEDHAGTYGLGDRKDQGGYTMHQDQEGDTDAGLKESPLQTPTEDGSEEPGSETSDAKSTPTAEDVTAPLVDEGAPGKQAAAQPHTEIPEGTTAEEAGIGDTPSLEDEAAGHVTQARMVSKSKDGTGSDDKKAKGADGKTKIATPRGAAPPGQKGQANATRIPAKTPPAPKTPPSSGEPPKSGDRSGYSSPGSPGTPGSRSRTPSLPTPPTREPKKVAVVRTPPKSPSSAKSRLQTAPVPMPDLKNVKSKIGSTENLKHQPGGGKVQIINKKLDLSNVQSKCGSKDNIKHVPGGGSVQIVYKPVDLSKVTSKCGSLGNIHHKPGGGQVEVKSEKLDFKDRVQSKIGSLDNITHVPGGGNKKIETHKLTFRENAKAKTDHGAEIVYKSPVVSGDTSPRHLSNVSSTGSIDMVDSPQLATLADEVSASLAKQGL

monoamine oxidase MAO-B = target: T2, monoamine oxidase MAO-B (Homo sapiens, UniProt P27338); settings: literature; cited from earlier work
T2 construct: PET imaging of the human brain with the quinoline compound; host or cells: human brain in vivo
T2 sequence (P27338 1-520): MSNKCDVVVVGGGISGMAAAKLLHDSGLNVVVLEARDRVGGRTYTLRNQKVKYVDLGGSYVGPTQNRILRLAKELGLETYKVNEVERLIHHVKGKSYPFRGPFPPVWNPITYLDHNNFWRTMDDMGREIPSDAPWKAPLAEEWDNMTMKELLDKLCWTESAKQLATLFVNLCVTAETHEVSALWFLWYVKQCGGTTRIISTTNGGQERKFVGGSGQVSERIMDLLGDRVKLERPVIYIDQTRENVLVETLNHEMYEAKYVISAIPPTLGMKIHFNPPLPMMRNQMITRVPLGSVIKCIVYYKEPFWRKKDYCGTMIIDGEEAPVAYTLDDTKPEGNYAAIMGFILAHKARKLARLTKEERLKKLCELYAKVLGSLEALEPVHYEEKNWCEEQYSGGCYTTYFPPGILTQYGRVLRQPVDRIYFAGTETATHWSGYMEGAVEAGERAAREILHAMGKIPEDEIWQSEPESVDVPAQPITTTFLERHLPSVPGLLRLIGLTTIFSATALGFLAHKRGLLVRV

tracer binding to AD brain slices containing tau and Aβ pathology [1]: binds
tracer binding to tau-negative AD tissue containing only Aβ plaques [2]: does not bind
tracer binding to MAO-rich human tissue (striatum) (MAO): no binding
Compound: Cc1cnc(Nc2ccc3cnccc3c2)cc1F [[^3H]-Co. No. 1]

tracer binding to tau-negative AD tissue containing only Aβ plaques [2]: binds
tracer binding to MAO-rich human tissue (striatum) (MAO): binds
Compound: CNc1ccc(-c2ccc3cc(OC[C@H](O)CF)ccc3n2)cn1 [[^3H]-THK-5351, reference compound]

Compound: CCC(C)N([11CH3])C(=O)c1cc2ccccc2c(-c2ccccc2Cl)n1 (centres unmarked) [[^11C]PK11195]
brain retention, patients versus healthy volunteers [3]: failing to show any differences

Compound: Nc1c(F)ccc2cnc(-n3ccc4ccncc43)cc12 [^18F-MK-6240, 6-fluoro-3-(1H-pyrrolo[2,3-c]pyridine-1-yl)isoquinoline-5-amine]
binding to human AD brain cortex homogenates containing abundant NFT [4]: binds with high affinity
binding to amyloid plaque-rich, NFT-poor AD brain homogenates [5]: binds poorly
defluorination as skull uptake [6]: Moderate defluorination

Compound: CNc1ccc(-c2ccc3cc(OC[C@H](O)C[18F])ccc3n2)cn1 [^18F-THK5351]
affinity to PHF (PHF): high affinity
off-target binding in PET imaging of the human brain (monoamine oxidase MAO-B): confounded by off-target binding
